Test results reported in patent publication US8486398B2, “Anticoagulant antidotes comprising antibodies that bind dabigatran and/or related compounds” (Boehringer Ingelheim International GmbH, priority 2010, dated 2013).
“And” between values parts separate entries of the source, which are not always exact repeats. Identical values can stand only once. Like-named read-outs stand apart in the source and are kept apart here.

What was measured:
[1] = compared with dabigatran; cited from earlier work
thrombin = thrombin (Bos taurus, UniProt P00735)
Protocol: Briefly human plasma is obtained by taking whole blood into 3.13% sodium citrate. This is then centrifuged to obtain platelet free plasma and transferred to a separate tube and frozen until required on the day of the assay. Plasma is thawed at 37° C. on the day of the assay.
The thrombin clotting time is performed as follows. First thrombin is diluted to manufacturer's specification (3 IU/mL thrombin) in the buffer provided (Dade Behring Test kit) and prewarmed to 37° C. It is used within 2 hrs of being prepared. All assays were performed on a commercially available CL4 clotting machine (Behnk Electronics, Norderstadt, Germany). Fifty μL of plasma is pipetted into provided cuvettes with a magnetic stirrer and allowed to stir for 2 min in the well preheated to 37° C. in the CL4 machine. At this point 100 μL of the thrombin solution is added and the time required for the plasma sample to clot is recorded automatically by the CL4. Dabigatran is preincubated for 5 min in plasma in the provided cuvettes, before adding thrombin and starting the measurement. If antibody is also tested (up 50 μL of stock solution), there is a further 5 minute incubation at 37° C. before beginning clotting (i.e. 10 min total incubation with dabigatran, 5 min total incubation with antibody and then clotting is initiated with thrombin).

Row | Compound | prolongation of the activated partial thromboplastin time [1] | thrombin clotting time (thrombin; 200 nM dabigatran preincubated with human plasma, baseline 10.9-11 seconds) | elevation in clotting time over baseline (thrombin; 200 nM dabigatran, human plasma) [fold] | increase in clotting time over baseline (thrombin; 500 nM dabigatran, human plasma) [fold] | thrombin clotting time (thrombin; 500 nM dabigatran, human plasma, baseline 10.9 seconds) [s] | concentration dependence of thrombin clotting time (thrombin; increasing concentrations of dabigatran, human plasma)
1 | Cn1c(CNc2ccc(C(=N)N)cc2)nc2cc(C(=O)N(CCC(=O)OC3OC(C(=O)O)C(O)C(O)C3O)c3ccccn3)ccc21 (stereo not drawn) [1-O-acylglucuronide] | equipotent prolongation of the activated partial thromboplastin time compared with dabigatran |  |  |  |  | 
2 | Cn1c(CNc2ccc(C(=N)N)cc2)nc2cc(C(=O)N(CCC(=O)O)c3ccccn3)ccc21 [dabigatran, N-[2-(4-Amidinophenylaminomethyl)-1-methyl-1H-benzimidazol-5-ylcarbonyl]-N-(2-pyridyl)-beta-alanine] |  | 51 s and 63.7 s | ~5 | ~10 | 111.7 | concentration-dependent increase in the thrombin clotting time
